Experimental data as given in a melting point compilation (Tetko et al.; mined from patent text by program, amines drawn as free bases though some values may be those of a salt).

Structure (SMILES) | melting point [°C]
CCCCCCCCCCCCCCCCCCOCC(Br)COCCCCCCCCCCCCCCCCCC | 47.9 to 48.7
CC(C)NC(=O)N1CCC(CN2C(=O)C3(COc4cc5c(cc43)CCO5)c3ccccc32)C1 (stereo not given) | 107 to 115
Cc1cccc2c(=O)n(C3CCC(=O)NC3=O)c(C)nc12 (stereo not given) | 296 to 298
CCCCCCCCCCCCCCCCCCOC(=O)CBr | 37 to 40
CSN(C=C(C#N)C#N)c1cccc(C(C)=O)c1 | 165 to 166
COc1ccc(C(=O)CN2CCNC2=O)cc1OC | 167
Clc1ccc(C(CCC2CCCC2)Cn2cncn2)c(Cl)c1 (stereo not given) | 71
CN1CCN(S(=O)(=O)c2ccc3c(c2)C(=O)c2ccccc2C3=O)CC1 | 216 to 218
C#CCN1C[C@H](OC(C)=O)CC1=O | 46.5 to 47.5
CCOC(=O)C=CC(=S)c1ccc(-c2ccccc2)cc1 | 74 to 75
CS(=O)(=O)c1ccc(Br)cc1C(F)(F)F | 110 to 112
CC1(C)CC(=O)Nc2ccc(-c3cc(F)cc(C#N)c3)cc21 | 249 to 250
CC(C)c1noc(-c2c(Cl)ccc(C(=O)c3cnn(C)c3O)c2Cl)n1 | 138 to 144
O=C(NC1CC1)C1CC(=O)N(Cc2ccccc2)C1 (stereo not given) | 94 to 96
COc1cc(C(=O)CS(=O)(=O)c2ccccc2)ccc1Cc1cn(C(C)C(=O)N(C)C)c2ccc(C(=O)NCC3CCCC3)cc12 (stereo not given) | 146 to 147
C=CCN(C(C)=O)c1cccc(C(=O)C=CN(C)C)c1 | 91 to 94
CC(=O)c1ccc2c(c1)ncn2-c1cccc(-c2cncnc2)c1 | 253 to 254
CC(C)(C)OC(=O)N=C(NC(=O)OC(C)(C)C)N1CCC(n2ccc3ccccc32)CC1 | 115 to 118
C(=C(c1ccccc1)N1CCCCC1)C1=NCCC1 | 123 to 124
CCC(=CC(CNC(=O)c1ccncn1)=NO)C(C)[N+](=O)[O-] (stereo not given) | 150 to 152
CC(=O)C(C)(C)c1nsc2ccc(-n3c(=O)cc(C(F)(F)F)n(C)c3=O)cc12 | 195 to 196

Structure (SMILES) | melting point [°C]
CCCc1nc(N)nc(N)c1N1CCN(Cc2ccccc2)CC1 | 157 to 160
COc1ccc([C@@H]2Sc3cc(Cc4ccc(F)cc4)ccc3NC(=O)[C@@H]2O)cc1 | 216 to 218
CC(=O)OC1OCC[C@@H]1NC(=O)[C@H](Cc1ccccc1)NC(=O)OC(C)(C)C (stereo not given in full) | 156 to 157
Cc1c(C(=O)O)ccc(=O)n1-c1ccc(Cl)cc1 | 271 to 273
COc1cc(C(C)C)ccc1C1COc2c(C)c(C)c(Br)c(C)c21 (stereo not given) | 102 to 103
CC1(c2cc(NC(=O)Nc3ccc(OCCN4CCOCC4)c4ccccc34)n(-c3ccccc3)n2)CCCCC1 | 147 to 149
N#CC(Cl)CC(Cl)(Cl)C(=O)Oc1ccccc1 (stereo not given) | 51.5 to 52.5
CC(CO)(CO)NCc1c2ccc3ccccc3c2cc2ccsc12 | 212 to 215
CCNC(=O)c1cccc(F)c1[Si](C)(C)C | 80 to 82
N#CCCN1CCN(c2cc3cccnc3c(-c3cccc(C#N)c3)n2)CC1 | > 200
COc1ccc(CNc2nnc(OCCCO)c3ccc(Cl)cc23)cc1Cl | 124 to 126
Cc1[nH]c(=O)n(-c2cc(C(=O)OC(C)C)c(Cl)cc2F)c(=O)c1Cl | 198 to 201
CC(C)CC1=NC=C2C=CC(=O)NC3=C2N1CC3 | 211 to 212
ClCc1nc2ccccc2s1 | 34
CC(=O)C=Cc1ccc2sccc2c1 | 75
CCOC(=O)C1CC2C(=O)N=C(C(C)C)C=C2S1=N (stereo not given) | 182 to 183
CCN(CC)CC(O)c1c(OC)ccc2c(C)c(C)oc12 (stereo not given) | 55
CC(C)Cn1c(N(C)C(=O)OC(C)(C)C)c(OCCCC(F)(F)F)c2cc(OCc3ccccc3)ccc2c1=O | 117 to 118
CC(C)NCC(O)COc1cccc2c1CC(=O)N2 (stereo not given) | 173 to 175
CC(C)(C)c1cc(C(=O)NCCc2cccc([N+](=O)[O-])c2)cc(C(C)(C)C)c1O | 195 to 197
C=CC(O)c1ccc2ccccc2c1 (stereo not given) | 30 to 32

Structure (SMILES) | melting point [°C]
Clc1ccc(-c2cc(C3=CCN(Cc4c[nH]c5ncccc45)CC3)on2)cc1 | 245 to 247
Cc1c2n(c3ccccc13)C(=O)C(CO)(Cc1ncn(C(c3ccccc3)(c3ccccc3)c3ccccc3)c1C)CC2 (stereo not given) | 85 to 88
CCc1nc2c(N)nc3cccnc3c2n1CCCCCC(N)=O | 220 to 221
COC(=O)C1=C(C)NC2(O)COC(=O)C2C1c1cccc([N+](=O)[O-])c1 (stereo not given) | 147 to 149
COC(=O)C(C)c1cccc(C(=O)c2ccccc2)c1 (stereo not given) | 50 to 52
O=C(O)CCCC=C(c1cccnc1)c1cccc(NC(=S)Nc2ccc(Cl)cc2Cl)c1 | 154 to 155
CNc1ncc(-c2ccccc2)c(-c2ccccc2)n1 | 136 to 138
Nc1ccc(N2CCCC2)c(S(=O)(=O)O)c1 | 255 to 256
CS(=O)(=O)c1ccc(Oc2ccc([N+](=O)[O-])cc2[N+](=O)[O-])cc1 | 176 to 177
CCOC(=O)CN(C)C(=O)CCN(C(=O)c1ccc(Cl)cc1)c1ccc(OC)cc1 | 104 to 106
CN1C(=O)C(C(=O)Nc2ccc(Oc3nc4ccc(Cl)cc4s3)cc2)C(=O)N(C)C1=S | 213 to 215
CC(C(=O)O)(c1ccc(N2CCCC2)cc1)c1ccc(N2CCCC2)cc1 | 174 to 176
CC(=O)Oc1cc(OC(C)=O)c2c(c1)OC(c1ccc(OC(C)=O)c(OC(C)=O)c1)CC2 (stereo not given) | 143 to 144
CS(=O)(=O)c1ccc(C=Cc2ccc(NCCCCCCO)cc2)cc1 | 113 to 115
C=CCOC(=O)C(=[N+]=[N-])C(=O)CC1CC(=O)N1 (stereo not given) | 83
Cc1[nH]c(=S)n(Nc2ccccc2)c1C | 217 to 219
CSc1onc(-c2ccccc2)c1-c1ccccc1 | 83 to 86
CCCc1ccc(OCCN(C(=O)n2cccn2)c2ncnc3ccccc23)c(C)c1 | 114 to 115
Cc1c(-c2ccncc2)[nH]c(-c2ccncc2)c1C(=O)OCc1ccccc1 | 204 to 205
COc1cc(Cc2cnc(NC=O)nc2N)cc(OC)c1OC | 240 to 242

Now from value to compound:

melting point [°C] | Structure (SMILES)
112 to 113 | COC(=O)c1cccc(CN2C(=O)C(CCOc3ccc(CCNC(=O)OC(C)(C)C)cc3)Oc3ccccc32)c1 (stereo not given)
122 to 125 | N#CC(N)C(=O)c1ccc(C=O)cc1 (stereo not given)
177 to 179 | O=c1cc(-c2ccc(Br)cc2)oc2ccccc12
88 to 93 | CCOC(=O)CSc1nc(Cl)cc(Nc2cccc(C)c2C)n1
96 | CC1(C)SC(c2cc3ccccc3o2)NC1C(=O)O (stereo not given)
145 to 146 | Cc1ccc(-c2nc(CCOc3ccc(CN(O)C(N)=O)cc3)c(C)o2)cc1
186 to 187 | C[C@]12CCC(=O)N[C@@H]1CCc1cc(Sc3cccc(Cl)c3)ccc12
166 to 169 | O=[N+]([O-])c1ccc2c(c1)N(C1CC1)CNS2(=O)=O
123 to 125 | COc1ccc(C(=C(C)P(c2ccccc2)c2ccccc2)c2ccc(OC)cc2)cc1
124 to 126 | O=C(c1cccnc1)c1cc(Br)cc(Br)c1
158 to 160 | COc1ccc(CCN(CCC2CCCCC2)C(=O)CCCCC(N)=O)cc1OC
> 250 | CCN(CC)C(=O)C1CCC2C3CNC4=CC(=O)C=CC4(C)C3CCC12C (stereo not given)
187 | CCOC(=O)Cc1nn(CC(=O)Nc2ccccc2)c(=O)c2ccccc12
157 to 159 | CC(C)C(=O)Nc1cc([N+](=O)[O-])cc([N+](=O)[O-])c1
87 to 90 | CCc1cc(C(=O)OC)c(C2=NC(=O)C(C)(C(C)C)N2)nc1COC (stereo not given)
208 to 209 | CSc1nc2c(cnn2CC(O)c2ccccc2)c(=O)[nH]1 (stereo not given)
85 to 88 | CC(C)(C=O)Oc1ccc(Cl)cc1C#N
202 to 205 | O=C(Nc1ccccc1)Nc1cccc(-c2c(-c3ccccc3)cnc3c(C(F)(F)F)cccc23)c1
211 | Cn1c(=O)c(C#N)c(N2CCNCC2)c2cc(F)ccc21

melting point [°C] | Structure (SMILES)
118 | O=C1N(c2ccc(Cl)cc2Cl)Cc2cnc(Nc3ccccc3)nc2N1c1cccc(CCN2CCOCC2)c1
213 to 219 | N=C(N)c1ccc(C(=O)Nc2ccc(Nc3cc(-c4cccc5c4oc4ccccc45)ncn3)cc2)cc1
174 to 176 | Cc1cc(=O)c(C(=O)Nc2cccc(C)c2C)c(C)o1
43 to 45 | CCOC(=O)CSc1ccc([N+](=O)[O-])cc1
197 to 198 | O=c1[nH]c2ccc([N+](=O)[O-])cc2c(O)c1[N+](=O)[O-]
116 to 117 | CCOC(=O)Cc1nc(-c2ccc(F)cc2)oc1-c1cccs1
100 | NC(=O)CC(=O)NCCS
97 to 98 | COC(=O)c1cc(OCc2cccc(Cl)c2)ccc1OCCCC#N
222 to 224 | COc1ccc(CCC2SC(=O)NC2=O)c2ccc(=O)n(C)c12 (stereo not given)
189 to 190 | CSc1nn2c(N3CCN(CCO)CC3)cc(C)nc2c1S(=O)(=O)c1ccccc1
195 | COc1ccc(-c2nc(Sc3ccccc3F)[nH]c2-c2ccc(OC)cc2)cc1
290 to 295 | O=C1NC(=O)c2c1c(-c1ccccc1)cc1c2c2cc(O)ccc2n1CC(O)CO (stereo not given)
125 to 127 | CC[C@H](C)[C@H](NS(=O)(=O)c1cccc2ccccc12)C(=O)N[C@H]1CCOC1OC (stereo not given in full)
103 to 106 | C[C@@H](n1ncn(-c2ccc(OC(F)(F)F)cc2)c1=O)[C@@]1(c2ccc(F)cc2F)CO1
106 to 107 | CCOC(=O)Cc1c(C)n(Cc2ccccc2)c2ccc(OCc3nc4ccccc4s3)cc12
251 | CN(c1cccc2cc(C3=NCC4(CCN(S(C)(=O)=O)CC4)S3)[nH]c12)S(=O)(=O)c1cccs1
257 to 260 | Cc1cc2c(cc1Sc1ccc(C(=O)O)cn1)C(C)(C)CCC2(C)C
256 | Cc1ccc(N2C(=O)C(O)=C(C(=O)c3ccc(C(C)C)cc3)C2c2ccc(OCCN3CCOCC3)cc2)nn1 (stereo not given)
161 to 163 | CCCN1CC(c2ccc(S(C)(=O)=O)cc2)=C(c2ccc(C)cc2)C1=O
